How the values were obtained:
[1] = molecular target: T1, 20S proteasome (Homo sapiens) (UniProt P49721+P20618+P28074+P28062+P28065+P28072+P25786+P25787+P25788+P25789+P28066+P60900+O14818+Q8TAA3+P40306+A5LHX3+P49720+P28070+Q99436); assay: Activation of human 20S proteosome at caspase-like site assessed as substrate degradation using Z-LLE-AMC as flurogenic substrate preincubated for 15 mins followed by substrate addition and measured after 1 hr by spectrometric analysis; type: protein-complex assay
[2] = molecular target: T1, 20S proteasome (Homo sapiens); assay: Activation of human 20S proteosome at chymotrypsin like site assessed as substrate degradation using Suc-LLVY-AMC as flurogenic substrate preincubated for 15 mins followed by substrate addition and measured after 1 hr by spectrometric analysis; type: protein-complex assay
[3] = molecular target: T1, 20S proteasome (Homo sapiens); assay: Activation of human 20S proteosome assessed as maximum fold change in substrate degradation using Suc-LLVY-AMC/Z-LLE-AMC/Boc-LLR-AMC as flurogenic substrate preincubated for 15 mins followed by substrate addition and measured after 1 hr by spectrometric analysis relative to control; type: protein-complex assay; details: filed as activator
[4] = molecular target: T1, 20S proteasome (Homo sapiens); assay: Activation of human 20S proteosome at chymotrypsin like site assessed as maximum fold change in substrate degradation using Suc-LLVY-AMC as flurogenic substrate preincubated for 15 mins followed by substrate addition and measured after 1 hr by spectrometric analysis relative to control; type: protein-complex assay; details: filed as activator
[5] = molecular target: T1, 20S proteasome (Homo sapiens); assay: Activation of human 20S proteosome at trypsin-like site assessed as substrate degradation using Boc-LLR-AMC as flurogenic substrate preincubated for 15 mins followed by substrate addition and measured after 1 hr by spectrometric analysis; type: protein-complex assay
[6] = molecular target: T1, 20S proteasome (Homo sapiens); assay: Activation of human 20S proteosome at trypsin-like site assessed as maximum fold change in substrate degradation using Boc-LLR-AMC as flurogenic substrate preincubated for 15 mins followed by substrate addition and measured after 1 hr by spectrometric analysis relative to control; type: protein-complex assay; details: filed as activator
[7] = molecular target: T1, 20S proteasome (Homo sapiens); assay: Activation of human 20S proteosome at caspase-like site assessed as maximum fold change in substrate degradation using Z-LLE-AMC as flurogenic substrate preincubated for 15 mins followed by substrate addition and measured after 1 hr by spectrometric analysis relative to control; type: protein-complex assay; details: filed as activator
[8] = molecular target: T1, 20S proteasome (Homo sapiens); assay: Activation of human 20S proteosome assessed as substrate degradation using Suc-LLVY-AMC/Z-LLE-AMC/Boc-LLR-AMC as flurogenic substrate preincubated for 15 mins followed by substrate addition and measured after 1 hr by spectrometric analysis; type: protein-complex assay
Homo sapiens [9] = species on record: Homo sapiens; assay: Activation of human 20S-proteosome mediated full length alpha-synuclein degradation by measuring remaining protein at 2.5 uM incubated for 45 mins by Western blot analysis relative to control
HEK-293T = assay: Cytotoxicity in human HEK293T cells assessed as reduction in cell viability at 15 uM incubated for 16 hrs by CellTiter-glo assay; type: toxicity, cell-based
Homo sapiens [10] = species on record: Homo sapiens; assay: Activation of human 20S-proteosome mediated full length alpha-synuclein degradation by measuring remaining protein at 5 uM incubated for 45 mins by Western blot analysis relative to control
Homo sapiens [11] = species on record: Homo sapiens; assay: Activation of human 20S-proteosome mediated degradation of full length wild type alpha-synuclein at 10 uM incubated for 45 mins by Western blot analysis relative to control
Homo sapiens [12] = species on record: Homo sapiens; assay: Activation of human 20S-proteosome mediated full length alpha-synuclein degradation by measuring remaining protein at 10 uM incubated for 45 mins by Western blot analysis relative to control
HEK293T [13] = assay: Activation of 20S proteasome mediated full length alpha-synuclein A53T mutant degradation expressed in HEK293T cells assessed as residual protein at 5 uM incubated for 24 hrs by Western blot analysis relative to control; type: cell-based; details: Homo sapiens
Homo sapiens [14] = species on record: Homo sapiens; assay: Activation of human 20S-proteosome mediated full length alpha-synuclein degradation by measuring remaining protein at 15 uM incubated for 45 mins by Western blot analysis relative to control
HEK293T [15] = assay: Activation of 20S proteasome mediated full length alpha-synuclein A53T mutant degradation expressed in HEK293T cells assessed as residual protein at 15 uM incubated for 24 hrs by Western blot analysis relative to control; type: cell-based; details: Homo sapiens, filed as activator
Homo sapiens [16] = species on record: Homo sapiens; assay: Activation of human 26S proteosome assessed as increase in fold change in proteolytic degradation using SUC-ANW-AMC/Z-LLE-AMC/Boc-LRRAMC as flurogenic substrate at 80 uM preincubated for 15 mins followed by substrate addition and measured after 1 hr by spectrometric analysis relative to control; details: filed as activator
Homo sapiens [17] = species on record: Homo sapiens; assay: Activation of human 20S-proteosome mediated degradation of full length wild type alpha-synuclein at 15 uM incubated for 45 mins by Western blot analysis relative to control; details: filed as activator

SMILES	EC200 ([1]; filed as activator)	EC200 ([2]; filed as activator)	fold change (FC) [3]	fold change (FC) [4]	EC200 ([5]; filed as activator)	fold change (FC) [6]	fold change (FC) [7]	EC200 ([8]; filed as activator)	EC200 [1]	EC200 [2]	EC200 [5]	EC200 [8]	other results
O=[N+]([O-])c1cccc(CN2c3ccccc3Sc3ccc(Cl)cc32)c1	1.2 µM	1.1 µM	8	9	1.6 µM	8	12	1.1 µM					
O=C(CCN1c2ccccc2Sc2ccc(Cl)cc21)N(c1ccc(F)cc1)c1ccc(F)cc1	1.8 µM	0.7 µM	11	9.4	0.3 µM	6	9.4	0.4 µM					Activity (Homo sapiens [9]): 69%; Activity (HEK-293T): > 80%; Activity (Homo sapiens [10]): 51%; Activity (Homo sapiens [11]): 73%; Activity (Homo sapiens [12]): 27%; Activity (HEK293T [13]): 67%; Activity (Homo sapiens [14]): 19%
CN(C)CCCN1c2ccccc2Sc2ccc(Cl)cc21		7 µM	4	8				13.5 µM	> 80 µM		> 80 µM		Activity (Homo sapiens [17]): 80%; Activity (Homo sapiens [14]; filed as activator): 34%; fold change (FC) (Homo sapiens [16]): 2
Nc1cccc(CN2c3ccccc3Sc3ccc(Cl)cc32)c1	3.8 µM	6.5 µM	8	9	9.2 µM	10	10	3.6 µM					
N#CCCCCN1c2ccccc2Sc2ccc(Cl)cc21									> 80 µM	> 80 µM	> 80 µM	> 80 µM	
O=C(CCN1c2ccccc2Sc2ccc(Cl)cc21)Nc1ccccc1			2.5		80 µM	2		40 µM	> 80 µM	> 80 µM			
CN(C(=O)CCN1c2ccccc2Sc2ccc(Cl)cc21)c1ccc(F)cc1									> 80 µM	> 80 µM	> 80 µM	> 80 µM	
NC(=O)CCCCN1c2ccccc2Sc2ccc(Cl)cc21									> 80 µM	> 80 µM	> 80 µM	> 80 µM	
CCOC(=O)[C@]1(c2ccccc2)N=C(c2ccc(OC)cc2)N(Cc2ccccc2)[C@@H]1c1ccc(NCc2ccccc2)cc1													Activity (Homo sapiens [14]): 22%
CN(C)C(=O)CCN1c2ccccc2Sc2ccc(Cl)cc21									> 80 µM	> 80 µM	> 80 µM	> 80 µM	

Continued, in another order:

EC200 ([1]; filed as activator)	EC200 ([2]; filed as activator)	fold change (FC) [3]	fold change (FC) [4]	EC200 ([5]; filed as activator)	fold change (FC) [6]	fold change (FC) [7]	EC200 ([8]; filed as activator)	EC200 [1]	EC200 [2]	EC200 [5]	EC200 [8]	SMILES	other results
9.7 µM	2.4 µM	6	6	1.9 µM	8	4	2.4 µM					COC(=O)c1cccc(CN2c3ccccc3Sc3ccc(Cl)cc32)c1	
								> 80 µM	> 80 µM	> 80 µM	> 80 µM	Oc1ccc(CN2c3ccccc3Sc3ccc(Cl)cc32)cc1	
2.7 µM	1.9 µM	9	1.2	2.6 µM	15	7	1.4 µM					COC(=O)c1ccc(CN2c3ccccc3Sc3ccc(Cl)cc32)cc1	Activity (HEK293T [15]): 25%; Activity (Homo sapiens [14]; filed as activator): 33%; fold change (FC) (Homo sapiens [16]): 2
								> 80 µM	> 80 µM	> 80 µM	> 80 µM	CC(C)(C)OC(=O)c1ccc(CN2c3ccccc3Sc3ccc(Cl)cc32)cc1	
								> 80 µM	> 80 µM	> 80 µM	> 80 µM	CC(=O)Oc1ccc(CN2c3ccccc3Sc3ccc(Cl)cc32)cc1	
	2.8 µM	2	3	3.1 µM	2		1.5 µM	> 80 µM				Clc1ccc2c(c1)N(Cc1ccccc1)c1ccccc1S2	
1.3 µM		4		5.4 µM	2	4	1.5 µM		> 80 µM			COc1cccc(CN2c3ccccc3Sc3ccc(Cl)cc32)c1	

Source: ChEMBL document CHEMBL5154893, “Design, Synthesis, and Biological Evaluation of Potent 20S Proteasome Activators for the Potential Treatment of α-Synucleinopathies” (J Med Chem, 2022)
